Where a name gives a salt, the structure may show the parent alone. Read-outs that look alike come from different tables or passages of the source.
How the values were obtained:
Trypsin [1] = biological target: T1, Trypsin (Bos taurus, UniProt P00760); test: Measurement of activities of Drug A and its prodrugs to trypsin (chromogenic substrate, Ki); format: biochemical; settings: tris buffer pH 7.8, N-benzoyl-Val-Gly-Arg-p-nitroanilide substrate, room temperature; read-out: Trypsin inhibition constant
T1 construct: gene PRSS1
T1 sequence (P00760 24-246): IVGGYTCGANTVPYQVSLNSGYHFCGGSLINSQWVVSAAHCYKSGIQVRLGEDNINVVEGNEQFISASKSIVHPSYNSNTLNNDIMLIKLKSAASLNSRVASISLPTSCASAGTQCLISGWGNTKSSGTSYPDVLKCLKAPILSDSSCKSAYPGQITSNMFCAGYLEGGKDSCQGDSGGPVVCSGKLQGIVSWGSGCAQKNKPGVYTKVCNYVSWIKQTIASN
Protocol: 140 μl of 0.1 M tris buffer solution (pH 7.8) containing 150 mM NaCl and 0.1% PEG 8000 (PolyEthylene Glycol, Molecular Weight: about 8,000) was pipetted into a microplate. A substrate solution was prepared by dissolving N-benzoyl-Val-Gly-Arg-p-nitroanilide hydro-chloride in DMSO to a concentration of 10 mM, and then diluting the resultant with the above buffer solution to a concentration of 0.5 mM. 20 μl of 0.5 mM substrate solution obtained thus was added to the microplate. An inhibitor solution was prepared by dissolving the inhibitor compound according to the present invention in DMSO to make the concentration of 10 mM, and then diluting the resultant with the above buffer solution to make the concentrations of 100000 nM, 10000 nM, 1000 nM, 100 nM, 10 nM, 1 nM, 0.1 nM, 0.01 nM and 0 nM, respectively. 20 μl of each inhibitor solution was adjusted to whole volume of 180 μl and then added to the microplate.
Trypsin which had been dissolved in 0.1 N HCl solution was added to the above tris buffer, just before the experiment, to make the concentration of 1 μg/ml, and 20 μl of solution obtained thus was added to the microplate containing the reaction solution at the room temperature. The amount of para-nitroaniline produced for 10 minutes after addition of enzymes was monitored by the light. The absorbance was plotted against the reaction time. Such graphs were obtained by performing the above experiment on the various concentrations of inhibitor.
Activities of Drug A and several prodrugs to trypsin were measured by determining the dissociation constant Ki, using the following formula according to the method described in Methods in Enzymology (V.80 p341–361; Biochemistry 27 p2144–2151,1988) Ki=[E]·[I]/[EI] • [E]: concentration of enzyme not bound to inhibitor • [I]: concentration of inhibitor not bound to enzyme • [EI]: concentration of binding product of enzyme and inhibitor
Such dissociation constant can be obtained by reacting with para-nitroanilide, which is chromogenic upon hydrolysis by the action of trypsin, and then measuring the extent of chromogenicity with time by spectroscopy.
The initial velocity, Vi, was obtained from the best-fit slope for the first 30 seconds after the reaction start time for each plot, and then a graph of the concentration of inhibitor versus the inverse of the initial velocity (1/Vi) was constructed. Thereafter, the linear function, which satisfies the graph, was calculated, and then Ki was calculated from the x-intercept of the above function using the enzymatic reaction formula. Km used in this calculation was obtained by changing the concentration of substrate at the constant enzyme concentration of […].

[2] = dog, cited from earlier work
thrombin = thrombin (Homo sapiens, UniProt P00734); settings: cited from earlier work
Trypsin [3] = biological target: T1, Trypsin; settings: cited from earlier work
[4] = human subjects, oral; cited from earlier work
[5] = rats, oral; cited from earlier work
[6] = Effect of composition of food on bioavailability of Drug A in dog; format: in vivo; settings: dogs; for bioavailability: dog, plasma, po
Protocol: A solution in which 5 g of starch dispersed in 40 ml of water, 40 ml of egg albumin, and a solution in which 5 g of Gelucire® (44/14) dispersed in 40 ml of water, respectively, were fed to two dogs […] before administration of Drug A. These dogs (8–11 kg, Covance Research Product corporation, MI, U.S.A) were bred in a standard laboratory cage, adjusted for a temperature (22±3° C.) and humidity (50±20%), with feed and water available ad libitum. The dogs were fasted for 18–20 hours prior to this experiment. The test group for ascertaining the effect of foods was provided with foods 1 hour before administration of a drug, and the drug was administered after ingestion of foods. At a previously fixed time after administration, 500 μl of blood was gathered from the cephalic vein using the heparinized syringe, and the blood plasma was separated by a centrifuge, and then the plasma concentration of the drug was measured by HPLC analysis.
A Shiseido Capcell-Pak C18 reverse phase column was used for the drug-detection, employing a Shimadzu HPLC system (Class-LC10A system control software, CBM-10A communication bus module, two LC-10AD pumps, SIL-10AXL autoinjector with sample cooler, SPD-10AV ultraviolet detector). The mobile phase was acetonitrile : 0.1% trifluoroacetic acid /5 mM sodium dodecyl sulfate=47 : 53 and the flow rate was 1 ml/min. Data, obtained after oral administration, was expressed in a graph of drug concentration versus time, and applied to the non-compartment model using Win-Nonlin program (Scientific Consultion Corporation, NC, U.S.A.), whereby pharmacokinetic parameters such as a half-life (t1/2), maximum concentration (Cmax), time of the maximum concentration (Tmax), AUCinf, AUClast, and bioavailability (BA) were calculated. AUC was obtained by applying the trapezoidal rule-extrapolation method, and BA was calculated by using the formula (AUCPO×DoseIV)/(AUCIV×DosePO). The result of the experiment is disclosed in FIG. 1 and TABLE 2.

[7] = cited from earlier work

`CCOC(=O)CN[C@@H](C(=O)N1CCC[C@H]1C(=O)NCc1ccc(/C(N)=N/OC(C)=O)s1)C(c1ccccc1)c1ccccc1` [Prodrug 2] gave a Ki (Trypsin [1]) of 21300 nM.

For `CC(=O)N[C@H](Cc1ccccc1)C(=O)N(CC(=O)N[C@@H](CCCN=C(N)N)B(O)O)C1CCCC1` [Prodrug S-18326, Ac-D-Phe-N-cyclopentylglycine-boroArg-OH], the bioavailability ([2]; after meals) is given as 6%, the bioavailability ([2]; fasting state) is given as 27% and the IC50 (thrombin) is given as 3.6 nM. For the same compound, the IC50 (Trypsin [3]) was 20 nM.

In the case of `N=C(N)NCCCC(C=O)NC(=O)C1CCCN1C(=O)C1NCCC2CCCCC21` (stereo not drawn) [R-Piq-Pro-Arg-H], the “bioavailability after intake of foods” value [4] is listed as “decreases remarkably” and the “bioavailability after administration of foods” value [5] is listed as “decreases remarkably”.

Compound `CCOC(=O)CN[C@@H](C(=O)N1CCC[C@H]1C(=O)NCc1ccc(/C(N)=N/O)s1)C(c1ccccc1)c1ccccc1` [Prodrug 3] has a Ki (Trypsin [1]) of 5490 nM.

`N=C(N)c1ccc(CNC(=O)[C@@H]2CCCN2C(=O)[C@H](NCC(=O)O)C(c2ccccc2)c2ccccc2)s1` [Drug A, (2S)-N-{5-[amino(imino)methyl]-2-thienyl}methyl-1-{(2R)-2-[(carboxylmethyl)amino]-3,3-diphenylpropanol}-2-pyrrolidincarboxamide] showed a Ki (Trypsin [1]) of 0.3 nM, a bioavailability ([6]; in fasting state) of 43% and a bioavailability ([6]; oral, after intake of Gelucire (lipid)) of 20%. For the same compound, the bioavailability ([6]; oral, after intake of egg albumin) was 13%, the bioavailability ([6]; oral, after intake of starch) was 41% and the “bioavailability after ingestion of foods” value ([6]; after ingestion of foods) was “decreased markedly”.

Work on `CCOC(=O)CN[C@@H](C(=O)N1CCC[C@H]1C(=O)NCc1ccc(/C(N)=N/C(=O)OCC(C)C)s1)C(c1ccccc1)c1ccccc1` [Prodrug 1] yielded a Ki (Trypsin [1]) of 673 nM.

`CCOC(=O)CN[C@@H](C(=O)N1CCC[C@H]1C(=O)NCc1ccc(/C(N)=N/C(=O)OCC2CCCCC2)s1)C(c1ccccc1)c1ccccc1` [Prodrug 4] showed a Ki (Trypsin [1]) of 21000 nM.

In the case of `NCCCC[C@H](NC(=O)C1(C(=O)NCCc2ccccc2)CCCC1)B(O)O` [Prodrug S-31922, 5-amino-1-R-(1phenethyl-carbamoyl-cyclopentanecaraboxamide) pentyl boronic acid], the bioavailability ([2]; after meals) is listed as 22%, the bioavailability ([2]; fasting state) is listed as 36% and the IC50 (thrombin) is listed as 43 nM. For the same compound, the IC50 (Trypsin [3]) was 340 nM.

For `CC(C)(C)NC(=O)[C@@H]1CN(Cc2cccnc2)CCN1C[C@@H](O)C[C@@H](Cc1ccccc1)C(=O)N[C@H]1c2ccccc2C[C@H]1O` [Indinavir, [1(1S,2R), 5(S)]-2,3,5-trideoxy-N-(2,3-dihydro-2-hydroxy-1H-inden-1-yl)-5-[2-[[(1,1-dimethylethylaminocarbonyl)-4-(3-pyridinylmethyl)-1-piperazinyl]-2-(phenylmethyl)-D-erytho-pentonamide sulfate (1:1) salt], the “absorption rate when administered together with foods” value [7] is given as “absorption rate decreases”.

Reference: patent US7097967B2, “Method of predicting drug-food interaction” (LG Life Sciences Ltd., priority 2002, dated 2006)
